US20260232706A1, “1H-PYRAZOLE ANALOGUES AND METHODS AND USES THEREOF” (University of Manitoba, priority 2022, published 2026)
Several values for one entry are separate records, joined by “and”; a condition that tells them apart may be missing. Equal values may be shown once. Entries after “also recorded” stand apart in the source; their conditions may differ.

Experiments:
[1] = system: SOD1-G37R mouse model of ALS, Het G37R (Line 42) mice; assay: Therapeutic efficacy in the SOD1-G37R mouse model of ALS; assay type: in vivo
Procedure: Methods: B^5-EDR analogues were synthesized as described in Example 1. The specific methodology employed for this Example is described below. All the statistical analyses were carried out by using GraphPad Prism […] software (version 9.5.1 (733)), (GraphPad Software, La Jolla, CA). Statistical significance was performed using a two-tailed unpaired t-test used for body weight assessment, disease onset, survival, and weight loss comparisons. Kaplan-Meier survival analysis and log rank test was also used for survival analysis. For these in vivo studies, disease onset or symptom onset was defined by two criteria. The first criteria is defined by the loss of 10% body weight based on the highest recorded weight during the age of the mice after pre symptom onset treatment study. The loss of 10% body weight is often accompanied by appearance of symptoms of muscle weakness and the second criteria of disease onset, which is retrospectively defined as the age at which the mouse reaches peak weight. Mice were assessed and monitored daily by trained staff for weight and muscle weakness starting at 90 days of age i.e., well before clinical onset of disease. According to the common consensus among ALS scientific community, the disease onset is defined as a time when mice have reached their peak body weight well before the denervation induced muscle atrophy and weight loss.
Transgenic mice carrying human G37R mutant SOD1 [B6.Cg Tg(SOD1*G37R)42Dpr/J] were obtained from the Jackson Laboratory (Bar Harbor, ME, USA). These mice were crossed with female mice with a C57BL/6 background for at least four generations. Colonies are maintained in the Central Animal Care Services (CACS), University of Manitoba. The mice were used in accordance with the Guide of Care and Use of Experimental Animals of the Canadian Council on Animal Care. Transgenic offspring were genotyped by PCR of DNA obtained from ear biopsies, see (ia) below, using a protocol provided by the Jackson Laboratory.
For these experiments, a set of experiments was carried out having two groups of mice: • Group 1: Sham treatment (1:20 DMSO/PBS); and • Group 2: NS-1-2 treatment (1:20 DMSO/PBS) (10 mg/kg body weight/day). For these experiments, age matched Het G37R (Line 42) mice were administered vehicle (1:20, DMSO:PBS) or treatment (NS-1-2; 10 mg/kg bodyweight), daily, starting at the age of 90 days until the age of 210 days, and monitored daily for several significant humane point indicators including, a) Mouse unable to right itself in 15 sec b) 25% loss of weight on the highest recorded weight c) Full paralysis of one or more hind limbs d) Loss of bladder functions e) Crusty eyes/loss of vision and/or f) Penile prolapse.
For weight loss experiments, weight loss was based on highest recorded weight (humane end point).
For disease onset experiments, symptom onset was assessed (i.e. loss of 10% body weight based on the highest recorded weight with muscle weakness and time to peak body weight (days), was assessed and monitored daily by trained staff starting at 90 days of age i.e., well before pre-symptom onset of disease also, monitored daily for several significant humane point indicators including a) Mouse unable to right itself in 15 sec b) 25% loss of weight on the highest recorded weight c) Full paralysis of one or more hind limbs d) Loss of bladder functions e) Crusty eyes/loss of vision f) Penile prolapse. One tailed (unpaired t test) was performed to analyse age to reach (10%) loss of body weight.

[2] = system: neuroblastoma-spinal cord hybrid NSC-34 cells; assay: Neuroprotective effect/cell viability analysis in NSC-34 cells against H2O2 induced oxidative stress; assay type: cell-based; conditions: 250 μM H2O2
Procedure: Methods: The in vitro properties and antioxidant abilities of the synthesized B^5-EDR analogues were assessed in cell-based assays. […] The methodology employed for each of these assays is detailed below.
(iii) Methodology for neuroprotective effect/cell viability analysis in (NSC-34) cells (FIGS. 8A-B): Briefly, NSC-34 cells with about 20 k cells per well in 96 well plates were cultured in a complete medium consisting of high glucose Dulbecco's modified eagle medium (DMEM) (Thermo Fisher Scientific) supplemented with about 10% US-origin fetal bovine serum (Thermo Fisher Scientific), GlutaMAX-1, about 200 mM (100×) (Thermo Fisher Scientific), about 1% 100 mM Sodium pyruvate and about 1% 10,000 U/mL penicillin-streptomycin solution (Thermo Fisher Scientific) for about 20 h to reach confluency of about 70%—about 75%. All the cells were cultured in an incubator with about 5% of CO2 at about 37° C. About 20 kcells/100 μl/well were seeded in 96 well plates for about 20 h in triplicates. […] After about 1 h, the cells were treated with 250 μM of H2O2 for about 2 h. After a total period of about 3 h, about 10 μl of WST-8 reagent was added in each well and the absorbance readings were recorded after about 2.5 h at about 450 nm. All the experiments were repeated at least three times and measurements were run in triplicates.

[3] = individual animals, NS-1-2 treatment (N = 10)

Cc1cc(B2OC(C)(C)C(C)(C)O2)n(-c2ccccc2)n1 [NS-1-2, 3-methyl-5-(4,4,5,5-tetramethyl-1,3,2-dioxaborolan-2-yl)-1-phenyl1H-pyrazole]
prolongation of survival age or life span versus control (Kaplan-Meier) ([1]; 10 mg/kg/day IP from age 90 to 210 days): 14.5 days | mean age of survival (humane end point) ([1]; 10 mg/kg/day IP from age 90 to 210 days, n=10, FIG. 14): 196.7 days | median survival (Kaplan-Meier) ([1]; 10 mg/kg/day IP from age 90 to 210 days, n=10, FIG. 15): 199.5 days | delay of disease onset versus control (Kaplan-Meier) ([1]; age to reach peak body weight): 20 days | percentage mean weight loss (humane end point) ([1]; based on highest recorded weight, n=10, FIG. 16): 17.55% | Age to reach 10% loss of body weight based on highest recorded weight with muscle weakness [1, 3]: 199 days and 171 days and 184 days and 180 days and 193 days and 195 days (2×) and 203 days and 196 days and 165 days | Disease Onset: Age to reach peak body weight [1, 3]: 143 days (2×) and 156 days and 147 days and 154 days and 164 days and 163 days and 188 days and 148 days and 144 days | Treatment G37R (Survival Days) (Humane End Point) [1, 3]: 201 Days (2×) and 205 Days and 189 Days and 195 Days and 198 Days and 203 Days and 197 Days and 204 Days and 174 Days | 25% Loss of Weight Based on Highest Recorded Weight (Humane End Point) ([1]; individual animals, above or below the 25% criterion): Weight Loss <25% | Weight Loss (%) ([1]; individual animals, humane end point, based on highest recorded weight): Weight Loss (%): 17.056; also recorded: Weight Loss (%): 18.91; also recorded: Weight Loss (%): 19.67; also recorded: Weight Loss (%): 20; also recorded: Weight Loss (%): 15.68; also recorded: Weight Loss (%): 18.543; also recorded: Weight Loss (%): 10.122; also recorded: Weight Loss (%): 13.66; also recorded: Weight Loss (%): 18.548; also recorded: Weight Loss (%): 23.34 | difference in survival versus control ([1]; mean, 10 mg/kg/day IP from age 90 to 210 days): 13.3 days | delay of disease onset versus control (10% weight loss) ([1]; mouse, in vivo): around 23.2 days | delay of disease onset versus control (time to peak body weight, mean) ([1]; mouse, in vivo): around 23.6 days | disease onset: mean age (loss of 10% body weight with muscle weakness) ([1]; n=10, FIG. 17): 188.1 days | disease onset: mean age (time to peak body weight) ([1]; n=10, FIG. 18): 155 days | median age to reach peak body weight (Kaplan-Meier, printed as median survival) ([1]; n=10, FIG. 19): 151 days | neuroprotection in scavenging neurotoxic effects of H2O2 compared to EDR ([2]; 1 μM): better neuroprotection | neuroprotection in scavenging neurotoxic effects of H2O2 compared to EDR ([2]; 25 μM): better neuroprotection | viability compared to EDR ([2]; 50 μM dose): almost equal viability
